{"source": "patent US20250049819A1", "about": "“METHODS FOR TREATING AND PREVENTING C. DIFFICILE INFECTION” (Paratek Pharmaceuticals, Inc., priority 2016, published 2025)", "key": {"[1]": {"test_system": "C. difficile strains (N = 27)", "experiment": "MIC by broth microdilution against C. difficile clinical isolates", "format": "cell-based", "set-up": "Broth Microdilution Range (Minimum Inhibitory Concentration): unit not given here", "settings": "27 isolates; for MIC50 / MIC90: Clostridioides difficile", "description": "(§1) The activity of omadacycline was tested in vitro against 27 clinical isolates of C. difficile. […] The experiments were carried out using broth and agar microdilution methods according to Clinical and Laboratory Standards Institute (CLSI) guidelines. […] Each test was run in duplicate."}, "[2]": {"test_system": "C. difficile strain ATCC 43596", "experiment": "MIC90 against the infection model strain", "format": "cell-based"}, "[3]": {"test_system": "C. difficile strains (N = 27)", "experiment": "MIC by agar dilution against C. difficile clinical isolates", "format": "cell-based", "settings": "27 isolates", "description": "as §1"}, "[4]": {"test_system": "gut microflora populations", "experiment": "In vitro human gut model, gut microflora populations (Example 4)", "format": "cell-based", "description": "(§2) The gut model was inoculated with pooled fecal slurry (5 volunteers ≥60 years of age with no history of antibiotic therapy in the previous 3 months) and left for 2 weeks to allow the bacterial populations to achieve steady state. A single inoculum (˜10^7 cfu/mL) of C. difficile spores (PCR ribotype 027 strain 210) was added into vessel 1 of the gut model on day 14. One week later, on day 21, a second aliquot of C. difficile spores was added, and antibiotic instillation commenced. Model A (LHS) was exposed to moxifloxacin (43 mg/L, once daily, for 7 days) and Model B (RHS) was exposed to omadacycline (430 mg/L, once daily, for 7 days) commenced on day 21.\n(§3) Bacterial populations in the gut model were monitored using selective agars to count viable bacterial colonies. Populations were monitored every other day for the first 2 weeks until the steady state was reached, and daily thereafter. C. difficile populations were monitored in all three vessels, and all other bacterial groups (total obligate anaerobes, total facultative anaerobes, lactose fermenting Enterobacteriaceae, Enterococci, total Clostridia, Lactobacilli, Bifidobacteria and B. fragilis group) were monitored in vessels 2 and 3 only. Vessel 3, which represents the distal colon, is of most physiological relevance in terms of propensity to induce CDI. C. difficile total viable counts and spores counts were monitored using viable counting and a differential alcohol shock viable count on selective agars. From day 14 onwards C. difficile cytotoxin was measured using a quantitative VERO cell cytotoxicity assay. Samples of 1 mL each were centrifuged at 16,000×g for 15 minutes, and the supernatants were removed. Six 1:10 serial dilutions (to 10^−6) of culture supernatants from the gut model were prepared. Twenty microliters of the appropriate dilution was added to VERO cell monolayers and a further 20 μL of C. sordellii antitoxin (diluted 1:10 in sterile distilled water) was placed in the corresponding antitoxin row. Monolayers were examined after 24 and 48 hours of incubation in 5% CO2, with a positive result indicated by the presence of cell rounding with concurrent neutralization of the effect by C. sordellii antitoxin. Cytotoxin titers (relative units, RU) were an arbitrary log10 scale, and the cytotoxin titer is reported in the highest dilution with >70% cell rounding, i.e. 10^0=1 RU, 10^−1=2 RU, 10^−2=3 RU. Samples were taken daily from day 21 onwards to determine antimicrobial concentrations in the gut model vessels by a bioassay. Concentrations of moxifloxacin were determined using Isosensitest agar with Escherichia coli as the indicator organism. Concentrations of omadacyline were determined using Wilkins Chalgren agar with Kocuria rhizophila as the indicator organism."}, "[5]": {"test_system": "C. difficile PCR ribotype 027 strain 210", "experiment": "In vitro human gut model, C. difficile germination, proliferation and toxin production (Example 4)", "format": "cell-based", "description": "as §2, §3"}, "[6]": {"test_system": "C. difficile and gut microbiota", "settings": "published gut model studies; cited from earlier work"}, "[7]": {"test_system": "C. difficile strain ATCC 43596", "experiment": "Hamster model of C. difficile-associated diarrhea, survival", "format": "in vivo"}, "[8]": {"settings": "Wilkins-Chalgren broth, 48 hours anaerobic"}, "[9]": {"settings": "Wilkins-Chalgren broth, 48 hours anaerobic, read-out: Broth Microdilution MIC90"}, "[10]": {"settings": "Clostridioides difficile, ATCC43596, replicate plate A, read-out: MIC90 Plate A"}, "[11]": {"settings": "Clostridioides difficile, ATCC43596, replicate plate B, read-out: MIC90 Plate B"}, "[12]": {"settings": "Clostridioides difficile, ATCC43596, read-out: MIC90"}, "[13]": {"settings": "vessels 2 and 3, once daily for 7 days"}, "[14]": {"settings": "vessel 1, 43 mg/L once daily for 7 days"}, "[15]": {"settings": "vessel 2 and vessel 3, 43 mg/L once daily for 7 days"}, "[16]": {"settings": "oral 50 mg/kg/day for 5 days, N=10"}}, "note": "“Also recorded” adds a separate entry of the source. Like-named read-outs stand apart in the source and are kept apart here.", "data": [{"compound": "CO/N=C(\\C(=O)N[C@@H]1C(=O)N2C(C(=O)O)=C(COC(C)=O)CS[C@H]12)c1csc(N)n1", "note": "[Cefotaxime]", "values": [{"measurement": "MIC50", "setting": "[1]; [8]", "value": 64000, "unit": "µg/mL"}]}, {"compound": "CCC[C@@H]1C[C@@H](C(=O)N[C@@H]([C@H]2O[C@H](SC)[C@H](O)[C@@H](O)[C@H]2O)[C@H](C)Cl)N(C)C1", "note": "[Clindamycin]", "values": [{"measurement": "MIC50", "setting": "[1]; [8]", "value": 4000, "unit": "µg/mL"}, {"measurement": "MIC90", "setting": "[1]; [9]", "value": "> 16000", "unit": "µg/mL"}, {"measurement": "MIC90", "setting": "[2]", "value": "no activity"}, {"measurement": "MIC90", "setting": "[2]; [10]", "value": "> 32", "unit": "µg/mL"}, {"measurement": "MIC90", "setting": "[2]; [11]", "value": "> 32", "unit": "µg/mL"}]}, {"compound": "C[C@H]1c2cccc(O)c2C(=O)C2=C(O)[C@]3(O)C(=O)C(C(N)=O)=C(O)[C@@H](N(C)C)[C@@H]3[C@@H](O)[C@@H]21", "note": "[Doxycycline]", "values": [{"measurement": "MIC90", "setting": "[1]; read-out: MIC90 by broth dilution", "value": 0.5, "unit": "µg/mL"}, {"measurement": "MIC50", "setting": "[1]; [8]", "value": 30, "unit": "µg/mL"}, {"measurement": "MIC90", "setting": "[1]; [9]", "value": 500, "unit": "µg/mL"}, {"measurement": "MIC90", "setting": "[3]; Clostridioides difficile", "value": 1, "unit": "µg/mL"}]}, {"compound": "C[C@@H](O)[C@H]1C(=O)N2C(C(=O)O)=C(SCCN=CN)C[C@H]12", "note": "[Imipenem]", "values": [{"measurement": "MIC50", "setting": "[1]; [8]", "value": 4000, "unit": "µg/mL"}, {"measurement": "MIC90", "setting": "[1]; [9]", "value": 8000, "unit": "µg/mL"}]}, {"compound": "Cc1ncc([N+](=O)[O-])n1CCO", "note": "[Metronidazole]", "values": [{"measurement": "MIC50", "setting": "[1]; [8]", "value": 120, "unit": "µg/mL"}, {"measurement": "MIC90", "setting": "[1]; [9]", "value": 500, "unit": "µg/mL"}, {"measurement": "Agar Microdilution Range (Minimum Inhibitory Concentration)", "setting": "[3]; agar dilution", "value": "0.06 to 0.5", "unit": "mg/mL"}, {"measurement": "MIC90", "setting": "[2]; [12]", "value": 0.06, "unit": "µg/mL"}, {"measurement": "MIC90", "setting": "[2]; [10]", "value": 0.06, "unit": "µg/mL"}, {"measurement": "MIC90", "setting": "[2]; [11]", "value": 0.06, "unit": "µg/mL"}]}, {"compound": "COc1c(N2C[C@@H]3CCCN[C@@H]3C2)c(F)cc2c(=O)c(C(=O)O)cn(C3CC3)c12", "note": "[Moxifloxacin]", "values": [{"measurement": "time for all populations to return to pre-antibiotic levels following end of antibiotic exposure", "setting": "[4]; all populations", "value": "~1", "unit": "week"}, {"measurement": "decline in B. fragilis group populations, vessel 2", "setting": "[4]; vessel 2, 43 mg/L once daily for 7 days", "value": "~8", "unit": "log10 cfu/mL"}, {"measurement": "decline in B. fragilis group populations, vessel 3", "setting": "[4]; vessel 3, 43 mg/L once daily for 7 days", "value": "~4", "unit": "log10 cfu/mL"}, {"measurement": "decline in Enterococcus spp. / Enterococci populations", "setting": "[4]; [13]", "value": "~4", "unit": "log10 cfu/mL"}, {"measurement": "decline in Lactobacilli", "setting": "[4]; [13]", "value": "~3", "unit": "log10 cfu/mL"}, {"measurement": "C. difficile toxin detection (VERO cell cytotoxicity assay)", "setting": "[5]; all vessels", "value": "toxin detected in all three vessels"}, {"measurement": "day by which toxin was undetectable in all vessels", "setting": "[5]; all vessels", "value": "≤ 42", "unit": "days"}, {"measurement": "signs of simulated CDI", "setting": "[5]; once daily for 7 days, omadacycline 430 mg/L, moxifloxacin 43 mg/L", "value": "induced simulated CDI"}, {"measurement": "peak C. difficile cytotoxin titer, vessel 1", "setting": "[5]; [14]", "value": 2, "unit": "relative units"}, {"measurement": "peak C. difficile total viable counts, vessel 1", "setting": "[5]; [14]", "value": "~4.5", "unit": "log10 cfu/mL"}, {"measurement": "peak C. difficile cytotoxin titer, vessel 2 and vessel 3", "setting": "[5]; [15]", "value": 3, "unit": "relative units"}, {"measurement": "peak C. difficile total viable counts, vessel 2 and vessel 3", "setting": "[5]; [15]", "value": "~6", "unit": "log10 cfu/mL"}]}, {"compound": "CN(C)c1cc(NC(=O)CNC(C)(C)C)c(O)c2c1C[C@H]1C[C@H]3[C@H](N(C)C)C(O)=C(C(N)=O)C(=O)[C@@]3(O)C(O)=C1C2=O", "note": "[Tigecycline]", "values": [{"measurement": "induction of simulated CDI (C. difficile germination and toxin production) in the gut model", "setting": "[6]", "value": "do not promote C. difficile germination and toxin production; also recorded: have not induced simulated CDI in the gut model"}, {"measurement": "MIC90", "setting": "[2]; Clostridioides difficile, ATCC43596", "value": 0.06, "unit": "µg/mL"}, {"measurement": "MIC90", "setting": "[2]; Clostridioides difficile, ATCC43596, read-out: MIC90 Plate A", "value": 0.06, "unit": "µg/mL"}, {"measurement": "MIC90", "setting": "[2]; Clostridioides difficile, ATCC43596, read-out: MIC90 Plate B", "value": 0.06, "unit": "µg/mL"}]}, {"compound": "CN[C@H](CC(C)C)C(=O)N[C@H]1C(=O)N[C@@H](CC(N)=O)C(=O)N[C@H]2C(=O)N[C@H]3C(=O)N[C@H](C(=O)N[C@H](C(=O)O)c4cc(O)cc(O)c4-c4cc3ccc4O)[C@H](O)c3ccc(c(Cl)c3)Oc3cc2cc(c3O[C@@H]2O[C@H](CO)[C@@H](O)[C@H](O)[C@H]2O[C@H]2C[C@](C)(N)[C@H](O)[C@H](C)O2)Oc2ccc(cc2Cl)[C@H]1O", "note": "[Vancomycin]", "values": [{"measurement": "MIC90", "setting": "[2]; [12]", "value": 0.06, "unit": "µg/mL"}, {"measurement": "MIC90", "setting": "[2]; [10]", "value": 0.06, "unit": "µg/mL"}, {"measurement": "MIC90", "setting": "[2]; [11]", "value": 0.06, "unit": "µg/mL"}, {"measurement": "Median Survival", "setting": "[7]; hamster, in vivo", "value": 2, "unit": "days"}, {"measurement": "percent survival at day 2 post infection", "setting": "[7]; hamster, in vivo", "value": 40, "unit": "%"}, {"measurement": "percent survival by day 11", "setting": "[7]; [16]", "value": 30, "unit": "%"}, {"measurement": "survival by day 14", "setting": "[7]; [16]", "value": "all animals succumbed to the infection"}]}, {"compound": "amoxicillin clavulanate", "values": [{"measurement": "Broth Microdilution MIC50", "setting": "[1]; [8]", "value": 250, "unit": "µg/mL"}, {"measurement": "Broth Microdilution MIC90", "setting": "[1]; [8]", "value": 500, "unit": "µg/mL"}, {"measurement": "Broth Microdilution Range (Minimum Inhibitory Concentration)", "setting": "[1]; [8]", "value": "0.12-0.5"}, {"measurement": "Agar Microdilution MIC50", "setting": "[3]; agar dilution", "value": 50, "unit": "µg/mL"}, {"measurement": "Agar Microdilution MIC90", "setting": "[3]; agar dilution", "value": 1000, "unit": "µg/mL"}, {"measurement": "Agar Microdilution Range (Minimum Inhibitory Concentration)", "setting": "[3]; agar dilution", "value": "0.25-1"}]}, {"compound": "piperacillin-tazobactam", "values": [{"measurement": "induction of simulated CDI (C. difficile germination and toxin production) in the gut model", "setting": "[6]", "value": "do not promote C. difficile germination and toxin production; also recorded: have not induced simulated CDI in the gut model"}]}]}
